Where two headings read alike, the source gives them in different places.

In the assay the target is ATR kinase (full-length ATR) (Homo sapiens (Human), UniProt Q13535). Briefly: ATR inhibition assay (radioactive-phosphate incorporation). It counts as biochemical. The method, boiled down:
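Radiometric 33P incorporation by 5 nM full-length ATR into 800 μM target peptide with 10 μM [γ-33P]ATP, in 50 mM Tris/HCl pH 7.5, 10 mM MgCl2, 1 mM DTT, 7% DMSO, 25° C. Compound pre-incubated 10 minutes; reaction stopped after 24 hours, captured on phosphocellulose. Ki(app) from non-linear regression of initial rates.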

Setting [1] is: Ki(app), 5 nM full-length ATR, 10 μM ATP, 25° C.

ATR kinase (full-length ATR), sequence (Q13535 whole entry): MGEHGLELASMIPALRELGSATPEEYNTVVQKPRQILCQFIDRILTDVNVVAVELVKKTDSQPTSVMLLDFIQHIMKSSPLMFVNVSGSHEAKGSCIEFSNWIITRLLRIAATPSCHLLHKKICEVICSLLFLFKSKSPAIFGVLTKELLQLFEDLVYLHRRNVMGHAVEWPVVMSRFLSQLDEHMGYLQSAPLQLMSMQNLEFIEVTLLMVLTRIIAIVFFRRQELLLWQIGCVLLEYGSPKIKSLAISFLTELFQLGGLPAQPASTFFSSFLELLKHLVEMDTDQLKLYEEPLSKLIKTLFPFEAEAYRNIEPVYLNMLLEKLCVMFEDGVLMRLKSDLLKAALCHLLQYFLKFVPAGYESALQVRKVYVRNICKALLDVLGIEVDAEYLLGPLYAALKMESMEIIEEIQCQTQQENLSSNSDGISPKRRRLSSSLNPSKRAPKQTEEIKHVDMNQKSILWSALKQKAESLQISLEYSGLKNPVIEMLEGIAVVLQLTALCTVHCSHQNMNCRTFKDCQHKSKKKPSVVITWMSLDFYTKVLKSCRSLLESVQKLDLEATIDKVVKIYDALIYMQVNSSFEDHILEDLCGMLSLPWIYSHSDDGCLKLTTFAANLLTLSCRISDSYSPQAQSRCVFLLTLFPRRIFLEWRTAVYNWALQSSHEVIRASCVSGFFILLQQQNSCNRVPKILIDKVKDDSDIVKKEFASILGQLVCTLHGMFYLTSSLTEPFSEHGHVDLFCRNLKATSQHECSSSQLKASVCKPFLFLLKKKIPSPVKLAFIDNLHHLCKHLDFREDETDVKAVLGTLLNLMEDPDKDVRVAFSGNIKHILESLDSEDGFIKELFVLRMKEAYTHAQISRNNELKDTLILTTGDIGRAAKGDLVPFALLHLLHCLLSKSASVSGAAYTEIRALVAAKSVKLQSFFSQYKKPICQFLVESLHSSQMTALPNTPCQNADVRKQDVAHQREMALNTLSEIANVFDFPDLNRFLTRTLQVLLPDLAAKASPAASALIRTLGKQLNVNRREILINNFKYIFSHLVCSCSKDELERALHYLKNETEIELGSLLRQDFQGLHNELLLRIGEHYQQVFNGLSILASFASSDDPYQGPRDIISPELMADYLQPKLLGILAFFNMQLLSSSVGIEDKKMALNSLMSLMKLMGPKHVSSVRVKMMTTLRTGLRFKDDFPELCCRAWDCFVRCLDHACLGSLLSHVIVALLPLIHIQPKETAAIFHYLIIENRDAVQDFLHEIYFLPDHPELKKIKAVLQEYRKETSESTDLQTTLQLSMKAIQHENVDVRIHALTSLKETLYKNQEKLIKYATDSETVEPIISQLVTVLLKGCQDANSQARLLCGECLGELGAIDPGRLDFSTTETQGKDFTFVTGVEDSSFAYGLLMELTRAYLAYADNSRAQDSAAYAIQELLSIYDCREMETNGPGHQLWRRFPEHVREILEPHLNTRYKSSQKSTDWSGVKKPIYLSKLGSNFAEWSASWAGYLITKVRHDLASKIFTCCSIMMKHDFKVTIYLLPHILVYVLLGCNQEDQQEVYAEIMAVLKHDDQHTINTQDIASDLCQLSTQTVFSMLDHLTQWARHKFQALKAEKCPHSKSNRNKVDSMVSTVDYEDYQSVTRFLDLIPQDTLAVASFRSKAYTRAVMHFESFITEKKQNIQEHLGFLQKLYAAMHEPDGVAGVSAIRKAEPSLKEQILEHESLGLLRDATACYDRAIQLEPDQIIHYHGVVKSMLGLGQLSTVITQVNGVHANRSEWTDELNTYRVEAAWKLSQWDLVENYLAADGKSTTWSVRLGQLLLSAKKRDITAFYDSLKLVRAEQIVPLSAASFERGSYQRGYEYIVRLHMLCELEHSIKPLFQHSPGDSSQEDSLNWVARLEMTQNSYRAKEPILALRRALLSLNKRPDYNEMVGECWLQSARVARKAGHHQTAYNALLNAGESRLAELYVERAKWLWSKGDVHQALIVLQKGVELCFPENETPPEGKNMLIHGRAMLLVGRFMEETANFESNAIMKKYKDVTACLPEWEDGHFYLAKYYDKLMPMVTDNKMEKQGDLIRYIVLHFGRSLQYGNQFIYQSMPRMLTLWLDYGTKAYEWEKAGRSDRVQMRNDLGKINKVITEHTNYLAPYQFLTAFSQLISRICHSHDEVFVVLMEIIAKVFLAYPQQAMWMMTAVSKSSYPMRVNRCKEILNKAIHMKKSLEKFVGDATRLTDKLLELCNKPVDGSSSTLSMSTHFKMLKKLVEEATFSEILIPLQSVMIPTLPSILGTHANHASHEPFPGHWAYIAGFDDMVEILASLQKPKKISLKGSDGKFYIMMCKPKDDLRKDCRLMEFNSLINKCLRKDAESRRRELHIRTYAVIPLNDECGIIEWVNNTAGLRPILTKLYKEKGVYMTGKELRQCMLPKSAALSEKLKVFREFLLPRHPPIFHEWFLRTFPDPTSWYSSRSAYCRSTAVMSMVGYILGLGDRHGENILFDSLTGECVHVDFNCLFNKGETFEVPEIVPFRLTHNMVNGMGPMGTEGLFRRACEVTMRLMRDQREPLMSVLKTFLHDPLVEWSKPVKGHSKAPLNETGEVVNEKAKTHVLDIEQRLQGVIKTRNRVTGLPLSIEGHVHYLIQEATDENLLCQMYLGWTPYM

For the molecule `Nc1nn2cc(Cl)cnc2c1C(=O)Nc1cnccc1O[C@H]1CCCNC1` [I-O-74, (S)-2-amino-6-chloro-N-(4-(piperidin-3-yloxy)pyridin-3-yl)pyrazolo[1,5-a]pyrimidine-3-carboxamide], the Ki under setting [1] is 10 to 1000 nM. Regarding `CN1CCN(c2ccncc2NC(=O)c2c(N)nn3cc(C(C)(C)C#N)cnc23)CC1` [I-N-76, 2-amino-6-(2-cyanopropan-2-yl)-N-(4-(4-methylpiperazin-1-yl)pyridin-3-yl)pyrazolo[1,5-a]pyrimidine-3-carboxamide], the Ki fell in the range of 1000 to 5000 nM. As to `CN1CCN(C2CCN(c3ccncc3NC(=O)c3c(N)nn4cc(Cl)cnc34)CC2)CC1` [I-N-97, 2-amino-6-chloro-N-(4-(4-(4-methylpiperazin-1-yl)piperidin-1-yl)pyridin-3-yl)pyrazolo[1,5-a]pyrimidine-3-carboxamide], the Ki under setting [1] lay in the range of 10 to 1000 nM. Same read-out and setting: for `Nc1nn2cc(Cl)cnc2c1C(=O)Nc1cnccc1N1CCC(N)CC1` [I-N-86, 2-amino-N-(4-(4-aminopiperidin-1-yl)pyridin-3-yl)-6-chloropyrazolo[1,5-a]pyrimidine-3-carboxamide] the value was 10 to 1000 nM; for `CC1(S(C)(=O)=O)CCN(c2ccncc2NC(=O)c2c(N)nn3cc(F)cnc23)CC1` [I-N-243, 2-amino-6-fluoro-N-(4-(4-methyl-4-(methylsulfonyl)piperidin-1-yl)pyridin-3-yl)pyrazolo[1,5-a]pyrimidine-3-carboxamide], 10 to 1000 nM. Turning to `Nc1nn2cc(F)cnc2c1C(=O)Nc1cncc(F)c1N1CCC(S(=O)(=O)N2CCN3CCC2CC3)CC1` [I-N-273, N-(4-(4-(1,4-diazabicyclo[3.2.2]nonan-4-ylsulfonyl)piperidin-1-yl)-5-fluoropyridin-3-yl)-2-amino-6-fluoropyrazolo[1,5-a]pyrimidine-3-carboxamide], under setting [1], the Ki lay in the range of 10 to 1000 nM. For the molecule `Nc1nn2cc(Cl)cnc2c1C(=O)Nc1cnccc1OC1CNC1` [I-O-73, 2-amino-N-(4-(azetidin-3-yloxy)pyridin-3-yl)-6-chloropyrazolo[1,5-a]pyrimidine-3-carboxamide], the Ki under setting [1] fell in the range of 10 to 1000 nM. In the case of `N#CC1(c2cnc3c(C(=O)Nc4cncc(F)c4N4CCN(C5COC5)CC4)c(N)nn3c2)CC1` [I-N-180, 2-amino-6-(1-cyanocyclopropyl)-N-(5-fluoro-4-(4-(oxetan-3-yl)piperazin-1-yl)pyridin-3-yl)pyrazolo[1,5-a]pyrimidine-3-carboxamide], the Ki under setting [1] fell in the range of 10 to 1000 nM. On the same count and under the same terms, for `CS(=O)(=O)N1CCN(c2ccncc2NC(=O)c2c(N)nn3cc(F)cnc23)CC1` [I-N-178, 2-amino-6-fluoro-N-(4-(4-(methylsulfonyl)piperazin-1-yl)pyridin-3-yl)pyrazolo[1,5-a]pyrimidine-3-carboxamide] the value was 10 to 1000 nM. Regarding `CC(C)(O)CN1CCN(c2c(F)cncc2NC(=O)c2c(N)nn3cc(F)cnc23)CC1` [I-N-139, 2-amino-6-fluoro-N-(5-fluoro-4-(4-(2-hydroxy-2-methylpropyl)piperazin-1-yl)pyridin-3-yl)pyrazolo[1,5-a]pyrimidine-3-carboxamide], the Ki under setting [1] was in the range of 10 to 1000 nM.

For `COC1(C)CN(C(=O)C2CCN(c3ccncc3NC(=O)c3c(N)nn4cc(F)cnc34)CC2)C1` [I-G-79, 2-amino-6-fluoro-N-(4-(4-(3-methoxy-3-methylazetidine-1-carbonyl)piperidin-1-yl)pyridin-3-yl)pyrazolo[1,5-a]pyrimidine-3-carboxamide], under setting [1], the Ki fell in the range of 10 to 1000 nM. On the same count and under the same terms, for `CN(C)CC1CCN(c2ccncc2NC(=O)c2c(N)nn3cc(F)cnc23)CC1` [I-N-267, 2-amino-N-(4-(4-((dimethylamino)methyl)piperidin-1-yl)pyridin-3-yl)-6-fluoropyrazolo[1,5-a]pyrimidine-3-carboxamide] the value was 10 to 1000 nM; for `Cc1cncc(NC(=O)c2c(N)nn3cc(F)cnc23)c1N1CCC(C(=O)N2CCN(C)CC2)CC1` [I-G-55, 2-amino-6-fluoro-N-(5-methyl-4-(4-(4-methylpiperazine-1-carbonyl)piperidin-1-yl)pyridin-3-yl)pyrazolo[1,5-a]pyrimidine-3-carboxamide], 10 to 1000 nM; for `Nc1nn2cc(Cl)cnc2c1C(=O)Nc1cnccc1N1CCNCC1` [I-N-88, 2-amino-6-chloro-N-(4-(piperazin-1-yl)pyridin-3-yl)pyrazolo[1,5-a]pyrimidine-3-carboxamide], 10 to 1000 nM. Consider `Nc1nn2cc(F)cnc2c1C(=O)Nc1cnccc1N1CCN(S(=O)(=O)C2COC2)CC1` [I-N-195, 2-amino-6-fluoro-N-(4-(4-(oxetan-3-ylsulfonyl)piperazin-1-yl)pyridin-3-yl)pyrazolo[1,5-a]pyrimidine-3-carboxamide], for which the Ki under setting [1] fell in the range of 10 to 1000 nM. Regarding `Nc1nn2cc(F)cnc2c1C(=O)Nc1cncc(F)c1N1CCN(C(=O)C23CCN(CC2)CC3)CC1` [I-N-134, 2-amino-6-fluoro-N-(5-fluoro-4-(4-(quinuclidine-4-carbonyl)piperazin-1-yl)pyridin-3-yl)pyrazolo[1,5-a]pyrimidine-3-carboxamide], the Ki under setting [1] is 10 to 1000 nM. Regarding `Nc1nn2cc(F)cnc2c1C(=O)Nc1cnccc1-c1ccc(C(=O)N2CCN(C3COC3)CC2)nc1` [I-C-52, 2-amino-6-fluoro-N-(6-(4-(oxetan-3-yl)piperazine-1-carbonyl)-[3,4′-bipyridin]-3′-yl)pyrazolo[1,5-a]pyrimidine-3-carboxamide], the Ki under setting [1] was in the range of 10 to 1000 nM. For the molecule `Nc1nn2cc(F)cnc2c1C(=O)Nc1cnccc1N1CCN2C(=O)CC[C@H]2C1` [I-N-217, (S)-2-amino-6-fluoro-N-(4-(6-oxohexahydropyrrolo[1,2-a]pyrazin-2(1H)-yl)pyridin-3-yl)pyrazolo[1,5-a]pyrimidine-3-carboxamide], the Ki under setting [1] was in the range of 10 to 1000 nM.

Turning to `Nc1nn2cc(F)cnc2c1C(=O)Nc1cnccc1OC1CCS(=O)(=O)CC1` [I-O-45, 2-amino-N-(4-((1,1-dioxidotetrahydro-2H-thiopyran-4-yl)oxy)pyridin-3-yl)-6-fluoropyrazolo[1,5-a]pyrimidine-3-carboxamide], under setting [1], the Ki was in the range of 10 to 1000 nM. With `Nc1nn2cc(F)cnc2c1C(=O)Nc1cncc(F)c1N1CCN(C(=O)C2CNC2)CC1` [I-N-168, 2-amino-N-(4-(4-(azetidine-3-carbonyl)piperazin-1-yl)-5-fluoropyridin-3-yl)-6-fluoropyrazolo[1,5-a]pyrimidine-3-carboxamide], the Ki under setting [1] was in the range of 10 to 1000 nM. In the case of `CN1CCN(c2c(NC(=O)c3c(N)nn4cc(F)cnc34)cncc2C(F)F)CC1` [I-N-111, 2-amino-N-(5-(difluoromethyl)-4-(4-methylpiperazin-1-yl)pyridin-3-yl)-6-fluoropyrazolo[1,5-a]pyrimidine-3-carboxamide], the Ki lay in the range of 1000 to 5000 nM.

With `Nc1nn2cc(F)cnc2c1C(=O)Nc1cnccc1N1CCCCCC1` [I-N-264, 2-amino-N-(4-(azepan-1-yl)pyridin-3-yl)-6-fluoropyrazolo[1,5-a]pyrimidine-3-carboxamide], the Ki is 1000 to 5000 nM. For the molecule `Nc1nn2cc(F)cnc2c1C(=O)Nc1cncc(F)c1N1CCN2C(=O)CCCC2C1` (stereo not shown) [I-N-277, 2-amino-6-fluoro-N-(5-fluoro-4-(6-oxohexahydro-1H-pyrido[1,2-a]pyrazin-2(6H)-yl)pyridin-3-yl)pyrazolo[1,5-a]pyrimidine-3-carboxamide], under setting [1], the Ki is 10 to 1000 nM. Turning to `Nc1nn2cc(F)cnc2c1C(=O)Nc1cncc(F)c1N1CCC(C(=O)N2CCC(N3CCCC3)CC2)CC1` [I-G-59, 2-amino-6-fluoro-N-(5-fluoro-4-(4-(4-(pyrrolidin-1-yl)piperidine-1-carbonyl)piperidin-1-yl)pyridin-3-yl)pyrazolo[1,5-a]pyrimidine-3-carboxamide], the Ki under setting [1] lay in the range of 10 to 1000 nM. Consider `CC(C)(C#N)c1cnc2c(C(=O)Nc3cnccc3N3CCN(C4COC4)CC3)c(N)nn2c1` [I-N-142, 2-amino-6-(2-cyanopropan-2-yl)-N-(4-(4-(oxetan-3-yl)piperazin-1-yl)pyridin-3-yl)pyrazolo[1,5-a]pyrimidine-3-carboxamide], for which the Ki fell in the range of 1000 to 5000 nM.

`CN1CC2CN(C(=O)C3CCN(c4c(F)cncc4NC(=O)c4c(N)nn5cc(F)cnc45)CC3)CC2C1` (stereo not shown) [I-G-18, 2-amino-6-fluoro-N-(5-fluoro-4-(4-(5-methyloctahydropyrrolo[3,4-c]pyrrole-2-carbonyl)piperidin-1-yl)pyridin-3-yl)pyrazolo[1,5-a]pyrimidine-3-carboxamide]: the Ki lay within 10 to 1000 nM. Turning to `CCOc1ccncc1NC(=O)c1c(N)nn2cc(Cl)cnc12` [I-O-56, 2-amino-6-chloro-N-(4-ethoxypyridin-3-yl)pyrazolo[1,5-a]pyrimidine-3-carboxamide], the Ki under setting [1] lay within 10 to 1000 nM. In the case of `CCN1CCN(C(=O)C2CCN(c3c(F)cncc3NC(=O)c3c(N)nn4cc(F)cnc34)CC2)CC1` [I-G-9, 2-amino-N-(4-(4-(4-ethylpiperazine-1-carbonyl)piperidin-1-yl)-5-fluoropyridin-3-yl)-6-fluoropyrazolo[1,5-a]pyrimidine-3-carboxamide], under setting [1], the Ki was in the range of 10 to 1000 nM. Take `CCN1CCCC1C(=O)N1CCN(c2c(F)cncc2NC(=O)c2c(N)nn3cc(F)cnc23)CC1` (stereo not shown) [I-N-185, 2-amino-N-(4-(4-(1-ethylpyrrolidine-2-carbonyl)piperazin-1-yl)-5-fluoropyridin-3-yl)-6-fluoropyrazolo[1,5-a]pyrimidine-3-carboxamide]: the Ki under setting [1] lay in the range of 10 to 1000 nM. The same measure, in the same setting: the value for `COC(=O)[C@H]1CC[C@@H](Oc2ccncc2NC(=O)c2c(N)nn3cc(F)cnc23)CC1` [I-O-18, (1s,4s)-methyl 4-((3-(2-amino-6-fluoropyrazolo[1,5-a]pyrimidine-3-carboxamido)pyridin-4-yl)oxy)cyclohexanecarboxylate] was 10 to 1000 nM. Regarding `CN1CCN(C(=O)C2CCN(c3c(Cl)cncc3NC(=O)c3c(N)nn4cc(F)cnc34)CC2)CC1` [I-G-3, 2-amino-N-(5-chloro-4-(4-(4-methylpiperazine-1-carbonyl)piperidin-1-yl)pyridin-3-yl)-6-fluoropyrazolo[1,5-a]pyrimidine-3-carboxamide], the Ki under setting [1] lay in the range of 10 to 1000 nM.

These data come from patent US10392391B2 (Vertex Pharmaceuticals Incorporated, priority 2012, dated 2019).
